Results on 26 molecules are retold here after patent publication EP2970215B1, “PYRROLIDINE DERIVATIVES, PHARMACEUTICAL COMPOSITIONS CONTAINING THEM, AND THEIR USE IN THERAPY” (AbbVie Deutschland GmbH & Co. KG, priority 2013, dated 2014).

Broadly, the Ki is a measure of affinity in units of concentration, obtained from inhibition or displacement.

SMILES strings stand for the structures. Bounds are passed on as bounds.

The target of the test is T1, human GlyT1c transporter (Homo sapiens, UniProt P48067).
T1 construct: expressed in transfected cells; host or cells: CHO cells (recombinant; line hGlyT1c_5_CHO is named for the uptake assay)
T1 sequence (P48067 1-706): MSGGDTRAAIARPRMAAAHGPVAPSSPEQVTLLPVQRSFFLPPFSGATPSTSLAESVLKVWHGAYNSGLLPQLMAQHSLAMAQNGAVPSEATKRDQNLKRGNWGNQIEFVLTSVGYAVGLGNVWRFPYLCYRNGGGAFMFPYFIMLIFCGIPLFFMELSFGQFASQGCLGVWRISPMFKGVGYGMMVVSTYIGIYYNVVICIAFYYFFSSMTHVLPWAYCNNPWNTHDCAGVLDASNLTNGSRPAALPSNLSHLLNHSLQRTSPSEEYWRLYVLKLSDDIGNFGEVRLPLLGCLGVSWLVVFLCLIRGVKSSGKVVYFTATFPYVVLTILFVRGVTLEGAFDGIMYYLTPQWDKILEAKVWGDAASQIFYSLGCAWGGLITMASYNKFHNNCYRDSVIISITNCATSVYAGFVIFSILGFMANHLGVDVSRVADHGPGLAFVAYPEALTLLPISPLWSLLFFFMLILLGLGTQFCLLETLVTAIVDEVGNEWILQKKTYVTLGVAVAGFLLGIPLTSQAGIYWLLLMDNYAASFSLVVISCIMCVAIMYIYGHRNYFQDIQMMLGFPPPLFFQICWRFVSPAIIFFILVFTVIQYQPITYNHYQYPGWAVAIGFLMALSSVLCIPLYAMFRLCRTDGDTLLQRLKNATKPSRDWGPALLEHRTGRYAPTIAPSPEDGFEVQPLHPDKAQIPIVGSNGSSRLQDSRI
Put plainly: Radioligand binding assay using recombinant CHO cell membranes expressing human GlyT1. Conditions: radioligand binding to human GlyT1c transporter-expressing membranes. An excerpt: 2. Radioligand binding assays using recombinant CHO cell membranes expressing human GlyT1: […]

Regarding `Cn1cnc(S(=O)(=O)N2C[C@@H](Nc3ccc(F)cc3)[C@H](c3ccccc3)C2)c1` (relative stereo) [Example 71, trans-N-(4-fluorophenyl)-1-[(1-methyl-1H-imidazol-4-yl)sulfonyl]-4-phenylpyrrolidin-3-amine], the Ki is no more than 1000 nM. To `Cn1cnc(S(=O)(=O)N2C[C@H](Nc3ccc(Cl)c(OC(F)(F)F)c3)[C@@H](c3ccc(F)cc3)C2)c1` [Example 585, (3R,4S)-N-[4-chloro-3-(trifluoromethoxy)phenyl]-4-(4-fluorophenyl)-1-[(1-methyl-1H-imidazol-4-yl)sulfonyl]pyrrolidin-3-amine] belongs no more than 100 nM; to `Cn1cnc(S(=O)(=O)N2C[C@H](NCc3cncs3)[C@@H](c3ccccc3)C2)c1` [Example 457, (3R,4S)-1-[(1-methyl-1H-imidazol-4-yl)sulfonyl]-4-phenyl-N-(1,3-thiazol-5-ylmethyl)pyrrolidin-3-amine], no more than 10000 nM; to `COc1cc(N[C@H]2CN(S(=O)(=O)c3cn(C)cn3)C[C@@H]2c2ccccc2)ncn1` [Example 621, 6-methoxy-N-{(3R,4S)-1-[(1-methyl-1H-imidazol-4-yl)sulfonyl]-4-phenylpyrrolidin-3-yl}pyrimidin-4-amine], no more than 10000 nM. Next, `CCOC(=O)N[C@H]1CN(S(=O)(=O)c2cn(C)cn2)C[C@@H]1c1ccccc1` [Example 541, ethyl {(3R,4S)-1-[(1-methyl-1H-imidazol-4-yl)sulfonyl]-4-phenylpyrrolidin-3-yl}carbamate]: no more than 10000 nM.

`Cn1cnc(S(=O)(=O)N2C[C@@H](OCc3cccc(F)c3)[C@H](c3ccc(F)cc3)C2)c1` (relative stereo) [Example 712, 4-{[trans-3-[(3-fluorobenzyl)oxy]-4-(4-fluorophenyl)pyrrolidin-1-yl]sulfonyl}-1-methyl-1H-imidazole]: the inhibition constant (Ki) is no more than 1000 nM.

With `Cn1cnc(S(=O)(=O)N2C[C@H](NCC3CNC(C(F)(F)F)CN3)[C@@H](c3ccccc3)C2)c1` (stereo partly drawn) [Example 423, (3R,4S)-1-[(1-methyl-1H-imidazol-4-yl)sulfonyl]-4-phenyl-N-{[5-(trifluoromethyl)piperazin-2-yl]methyl}pyrrolidin-3-amine], the Ki was no more than 10000 nM.

As for `Cn1cnc(S(=O)(=O)N2C[C@@H](N3Cc4ccc(Cl)cc4C3=O)[C@H](c3ccccn3)C2)c1` (relative stereo) [Example 381, 6-chloro-2-[Trans-1-[(1-methyl-1H-imidazol-4-yl)sulfonyl]-4-(pyridin-2-yl)pyrrolidin-3-yl]-2,3-dihydro-1H-isoindol-1-one], the Ki was no more than 10000 nM. With `CC(C)OCCNC(=O)[C@@H]1CN(S(=O)(=O)c2cn(C)cn2)C[C@H]1c1ccc(F)cc1` [Example 587, (3S,4R)-4-(4-fluorophenyl)-1-[(1-methyl-1H-imidazol-4-yl)sulfonyl]-N-[2-(propan-2-yloxy)ethyl]pyrrolidine-3-carboxamide], the inhibitory constant (Ki) is no more than 10000 nM. Take `Cn1cnc(S(=O)(=O)N2C[C@@H](NCc3cccc(C(F)(F)F)c3Cl)[C@H](c3ccc(F)cc3)C2)c1` (relative stereo) [Example 149, trans-N-[2-chloro-3-(trifluoromethyl)benzyl]-4-(4-fluorophenyl)-1-[(1-methyl-1H-imidazol-4-yl)sulfonyl]pyrrolidin-3-amine]: the Ki was no more than 100 nM.

For the molecule `CCCC(C)CN[C@H]1CN(S(=O)(=O)c2cn(C)cn2)C[C@@H]1c1ccccc1` (stereo partly drawn) [Example 446, (3R,4S)-1-[(1-methyl-1H-imidazol-4-yl)sulfonyl]-N-(2-methylpentyl)-4-phenylpyrrolidin-3-amine], the Ki was no more than 100 nM. To `Cn1cnc(S(=O)(=O)N2C[C@@H](Nc3ccc(F)c(F)c3)[C@H](c3cccc(F)c3)C2)c1` (relative stereo) [Example 197, trans-N-(3,4-difluorophenyl)-4-(3-fluorophenyl)-1-[(1-methyl-1H-imidazol-4-yl)sulfonyl]pyrrolidin-3-amine] belongs no more than 1000 nM; to `Cn1cnc(S(=O)(=O)N2C[C@@H](C(=O)NCc3ccc(Cl)cc3)[C@H](c3ccc(F)cc3)C2)c1` (relative stereo) [Example 629, Trans-N-(4-chlorobenzyl)-4-(4-fluorophenyl)-1-[(1-methyl-1H-imidazol-4-yl)sulfonyl]pyrrolidine-3-carboxamide], no more than 1000 nM. To `Cc1ccc(CCN[C@H]2CN(S(=O)(=O)c3cn(C)cn3)C[C@@H]2c2ccccc2)cc1` [Example 461, (3R,4S)-1-[(1-methyl-1H-imidazol-4-yl)sulfonyl]-N-[2-(4-methylphenyl)ethyl]-4-phenylpyrrolidin-3-amine] belongs no more than 1000 nM. In the case of `CCC(CN[C@H]1CN(S(=O)(=O)c2cn(C)cn2)C[C@@H]1c1ccccc1)C(C)C` (stereo partly drawn) [Example 470, (3R,4S)-N-(2-ethyl-3-methylbutyl)-1-[(1-methyl-1H-imidazol-4-yl)sulfonyl]-4-phenylpyrrolidin-3-amine], the Ki is no more than 10000 nM. Next, `Cc1ccccc1CN[C@@H]1CN(S(=O)(=O)c2cn(C)cn2)C[C@H]1c1ccc(F)cc1` (relative stereo) [Example 153, trans-4-(4-fluorophenyl)-N-(2-methylbenzyl)-1-[(1-methyl-1H-imidazol-4-yl)sulfonyl]pyrrolidin-3-amine]: no more than 1000 nM. To `Cn1cnc(S(=O)(=O)N2C[C@@H](C(=O)NCc3cccc(OC(F)(F)F)c3)[C@H](c3ccc(F)cc3)C2)c1` (relative stereo) [Example 661, Trans-4-(4-fluorophenyl)-1-[(1-methyl-1H-imidazol-4-yl)sulfonyl]-N-[3-(trifluoromethoxy)benzyl]pyrrolidine-3-carboxamide] belongs no more than 1000 nM; to `CCCS(=O)(=O)N1C[C@@H](NC(=O)c2cccc(C(F)(F)F)c2Cl)[C@H](c2ccccc2)C1` (relative stereo) [Example 127, 2-chloro-N-[trans-4-phenyl-1-(propylsulfonyl)pyrrolidin-3-yl]-3-(trifluoromethyl)benzamide], no more than 10000 nM; to `COc1nc(N[C@H]2CN(S(=O)(=O)c3cn(C)cn3)C[C@@H]2c2ccccc2)cc(C(F)(F)F)n1` [Example 605, 2-methoxy-N-{(3R,4S)-1-[(1-methyl-1H-imidazol-4-yl)sulfonyl]-4-phenylpyrrolidin-3-yl} -6-(trifluoromethyl)pyrimidin-4-amine], no more than 1000 nM. Next, `Cn1cnc(S(=O)(=O)N2C[C@H](Nc3cc(OCC(F)(F)F)c(F)cn3)[C@@H](c3ccccc3)C2)c1` [Example 803, 5-fluoro-N-{(3R,4S)-1-[(1-methyl-1H-imidazol-4-yl)sulfonyl]-4-phenylpyrrolidin-3-yl}-4-(2,2,2-trifluoroethoxy)pyridin-2-amine]: no more than 10 nM. Consider `Cn1cnc(S(=O)(=O)N2C[C@H](Nc3cccc(C(C)(O)C(F)(F)F)c3)[C@@H](c3ccc(F)cc3)C2)c1` (stereo partly drawn) [Example 392, 1,1,1-trifluoro-2-[3-({(3R,4S)-4-(4-fluorophenyl)-1-[(1-methyl-1H-imidazol-4-yl)sulfonyl]pyrrolidin-3-yl}amino)phenyl]propan-2-ol], for which the Ki is no more than 100 nM. Next, `N#Cc1cccc(N[C@@H]2CN(S(=O)(=O)c3ccc(C(F)(F)F)cc3)C[C@H]2c2ccccc2)c1` (relative stereo) [Example 144, 3-{[trans-4-phenyl-1-{[4-(trifluoromethyl)phenyl]sulfonyl}pyrrolidin-3-yl]amino}benzonitrile]: greater than 10000 nM; `Cn1cnc(S(=O)(=O)N2C[C@@H](Nc3cccc(C(F)(F)F)c3)[C@H](c3ncccc3F)C2)c1` (relative stereo) [Example 798, Trans-4-(3-fluoropyridin-2-yl)-1-[(1-methyl-1H-imidazol-4-yl)sulfonyl]-N-[3-(trifluoromethyl)phenyl]pyrrolidin-3-amine]: no more than 100 nM; `Cn1cnc(S(=O)(=O)N2C[C@H](Nc3ccc4c(c3)CCCC4)[C@@H](c3ccccc3)C2)c1` [Example 657, (3R,4S)-1-[(1-methyl-1H-imidazol-4-yl)sulfonyl]-4-phenyl-N-(5,6,7,8-tetrahydronaphthalen-2-yl)pyrrolidin-3-amine]: no more than 1000 nM. In the case of `Cn1cnc(S(=O)(=O)N2C[C@@H](NC(=O)c3cccc(C(F)(F)F)c3Cl)[C@H](c3cccc(F)c3)C2)c1` (relative stereo) [Example 55, 2-chloro-N-{trans-4-(3-fluorophenyl)-1-[(1-methyl-1H-imidazol-4-yl)sulfonyl]pyrrolidin-3-yl}-3-(trifluoromethyl)benzamide], the inhibitory constant (Ki) is no more than 1000 nM.

In the case of `Cn1cnc(S(=O)(=O)N2C[C@H](Nc3cc(OCC4CCCN4)ncn3)[C@@H](c3ccc(F)cc3)C2)c1` (stereo partly drawn) [Example 780, N-{(3R,4S)-4-(4-fluorophenyl)-1-[(1-methyl-1H-imidazol-4-yl)sulfonyl]pyrrolidin-3-yl}-6-(pyrrolidin-2-ylmethoxy)pyrimidin-4-amine], the inhibition constant (Ki) was no more than 10000 nM.
